From US20110009379A1, “INDOLINONE COMPOUND” (ASTELLAS PHARMA INC., priority 2008, published 2011)

What was measured:
[1] = target: T1, human TRPA1 (Homo sapiens, UniProt O75762, K186N/R3C/R58T); experiment: Measurement of TRPA1 activation activity (intracellular calcium, FLIPR, HEK293 cells stably expressing human TRPA1); assay type: cell-based; conditions: change of intracellular calcium concentration
T1 construct: expressed in transfected cells; pcDNA3.1(+) vector)
Procedure: 10 ng of Human brain mRNA (Clontech Co.) was treated with DNase, and then was reverse transcribed using kit for reverse transcription-polymerase chain reaction (RT-PCR) (SUPERSCRIPT First-Strand Synthesis System for RT-PCR; Invitrogen Co.) to synthesize the first strand cDNA. PCR using a hot start method was performed using the first strand cDNA as a template and Taq DNA polymerase (LA Taq DNA polymerase; TAKARA SHUZO). The PCR was performed using oligonucleotides consisting of the nucleotide sequences, represented by sequence number 2 as a sense primer and sequence number 3 as an antisense primer, in which firstly, heat denaturation was performed at 98° C. (1 minute), and then a cycle of 98° C. (15 seconds)/56° C. (30 seconds)/72° C. (5 minutes) was repeated 35 times. As a result, a DNA fragment of about 3.3 kbp was amplified.
The DNA fragment was cloned to pCR-TOPO vector using a cloning kit (TOPO XL PCR Cloning Kit; Invitrogen). The obtained plasmid DNA was digested with restriction enzymes KpnI and HindIII, and then was cloned using plasmid pcDNA 3.1(+)(Invitrogen). In this connection, the plasmid pcDNA 3.1(+) has a promoter sequence derived from cytemegalovirus, and can be used in order to express a protein in animal cells.
The nucleotide sequences of the obtained clones were analyzed using DNA sequencer (ABI3700 DNA Sequencer; Applied Biosystems) by dideoxyterminator method, and the nucleotide sequence represented by sequence number 1 was obtained. Furthermore, when these sequences were translated to amino acid sequences, the amino acid sequence represented by sequence number 1 was obtained.
After constructing the expression vector of the human TRPA1 gene, selection by G418 was performed from the HEK293 cells which temporarily expressed TRPA1 by transfection operation to obtain cells stably expressing TRPA1. The above operation was performed according to known methods (experimental medicine supplementary volume, “Cultivation Cell Experimental Methods for Molecular Biology Study” published by Toshio Kuroki, Namho Hue and Kazuhiro Chida, 1995, Yodosha).
In order to measure the change of the intracellular calcium concentration in the cells stably expressing the human TRPA1, the change of the intracellular calcium concentration when a compound to be tested was added was measured using FLIPR (Molecular Device).
In order to measure the change of the intracellular calcium concentration with FLIPR, the following pretreatment was performed. First of all, assay buffer was prepared which was for adding fluorescent pigment Fluo4-AM (DOJIN) to the cells or washing the cells just before performing FLIPR assay. To a solution (hereinafter, HBSS/HEPES solution) where 20 mL of 1M HEPES (pH 7.4; Invitrogen) was added to 1000 mL of a physiological saline buffer (Hank's Balanced Salt Solution; HBSS) (Invitrogen), was added 10 mL of a solution where 710 mg of probenecid (Sigma) was dissolved into 5 mL of 1M aqueous NaOH solution and 5 mL of HBSS/HEPES solution was further added and mixed, and the assay buffer was thus prepared. Then, 50 μg of Fluo4-AM was dissolved into 22 μL of DMSO (DOJIN), the same amount of 20% pluronic acid (Molecular Probes) was added thereto and mixed, and the mixture was added to the 10.6 mL of the assay buffer where 105 μL of fetal bovine serum was added, to prepare a fluorescent pigment solution. The medium of the cells stably expressing TRPA1 was removed, 100 μL per well of the fluorescent pigment solution was dispensed immediately, followed by cultivation in a CO2 cultivator for 1 hour, and the fluorescent pigment was soaked in the cells. The cells after cultivation were washed using the assay buffer, followed by being set in FLIPR. Furthermore, a test sample, which was added to the cells stably expressing TRPA1, was prepared by using the assay buffer, and at the same time, was set in FLIPR. […]

[2] = test system: gastric emptying of rats; experiment: Activity to gastric emptying of TRPA1 agonist (phenol red, rats); assay type: in vivo; conditions: Rattus norvegicus; male wistar rats, oral administration, versus control animals; read-out: ED50 (amount which suppresses 50% of gastric emptying)
Text: When EC cell is stimulated by content of a gastrointestinal tract, 5-HT is secreted. The secreted 5-HT promotes the secretion or motility through a 5-HT receptor present in intestinal nerve plexus or gastrointestinal smooth muscle. The secreted 5-HT is instantly taken into a cell by its specific transporter, and is metabolized by […]. Thus, while it is considerably difficult to directly measure the secreted 5-HT concentration, it has been known that gastric emptying is delayed as a physiological activity through 5-HT in rodents. In order to verify in vivo activity through 5-HT of the compound to be tested, activity to gastric emptying of rats by various TRPA1 agonists was studied.
In the experiment, male wistar rats (body weight 290 to 360 g) were used. The animals were purchased from Japan SLC (Shizuoka). The animals were allowed to drink water freely under a constitutive environment.
5 minutes after the medicine was orally administered, 0.05% phenol red solution (1.5 mL) was orally administered. After 15 minutes, rats were put painlessly to death by cervical vertebral dislocation, their stomachs were exenterated, and phenol red was eluted with 0.1M aqueous NaOH solution (5 mL) from the exenterated stomachs. 20% aqueous trichloroacetic acid solution (0.1 mL) was added to the NaOH solution (0.5 mL), followed by stirring and centrifugation at 15,000 rpm, at 4° C., for 10 minutes. 0.5M aqueous NaOH solution (0.2 mL) was added to the supernatant (0.05 mL), followed by stirring, and absorbance at 560 nm was measured using an absorption spectrometer (spectrometer spectramax M2; Molecular Devices, CA, USA).
A gastric emptying was calculated by the following calculating formula.
Gastric emptying (%)=100−(A/B)×100
A: amount of phenol red remaining in stomach
B: amount of phenol red remaining in stomach just after administering phenol red
ED50 values (amount of the compound to be tested which suppresses 50% of gastric emptying, with respect to the control animals without administering the compound to be tested) of some of the compounds of the formula (I) are shown in Table 2. In this connection, comparative compound 1 and comparative compound 2 are (3E)-1-methyl-3-(2-oxopropyridene)-1,3-dihydro-2H-indol-2-one, and (3E)-3-(2-oxopropyridene)-1-prop-2-in-1-yl-1,3-dihydro-2H-indol-2-one described in Non Patent Document 4 above, and has the following chemical structures, respectively.

[3] = target: Cytochrome P450(2D6) (Homo sapiens, UniProt P10635); experiment: Cytochrome P450(2D6) enzyme inhibition test; assay type: in vitro ADME; conditions: CYP2D6, fluorescent substrate 1.5 μmol/L, 37° C., 20 minutes
Procedure: The experiment was performed in accordance with the method of Crespi et al. (Analytical Biochemistry, 248, 188-190, 1997).
As a substrate, 3-[2-(N,N-diethyl-N-methylamino)ethyl]-7-methoxy-4-methyl coumarine (1.5 μmol/L) a compound to be tested (3.1×10^−7 to 2×10^−5 M) and an enzyme (2.5×10^−8 M) were incubated at 37° C. for 20 minutes in total of […] of 100 mM phosphorous buffer (pH=7.4) including 8.2 mM NADP+, 0.41 mM glucose-6-phosphate, 0.41 mM MgCl2 and 0.4 Units/mL glucose-6-phosphate dehydrogenase, using 96 well plates. Then, 0.5 M aqueous 2-amino-2-hydroxymethyl-1,3-propandiol solution containing 80% acetonitrile was added to stop the reaction, fluorescence intensity (excitation wavelength; 390 nm, fluorescent wavelength; 460 nm) was measured with a fluorescent plate reader. An inhibition ratio was calculated with the following formula, and the test compound concentration when the inhibition ratio is 50% (IC50) was obtained.
C1: fluorescence intensity in the presence of the test compound and enzyme at know concentrations, and the substrate
C0: fluorescence intensity in the presence of the enzyme and substrate, without the test compound
B1: fluorescence intensity of blank well

T1 sequence (O75762 whole entry R3C/R58T/K186N): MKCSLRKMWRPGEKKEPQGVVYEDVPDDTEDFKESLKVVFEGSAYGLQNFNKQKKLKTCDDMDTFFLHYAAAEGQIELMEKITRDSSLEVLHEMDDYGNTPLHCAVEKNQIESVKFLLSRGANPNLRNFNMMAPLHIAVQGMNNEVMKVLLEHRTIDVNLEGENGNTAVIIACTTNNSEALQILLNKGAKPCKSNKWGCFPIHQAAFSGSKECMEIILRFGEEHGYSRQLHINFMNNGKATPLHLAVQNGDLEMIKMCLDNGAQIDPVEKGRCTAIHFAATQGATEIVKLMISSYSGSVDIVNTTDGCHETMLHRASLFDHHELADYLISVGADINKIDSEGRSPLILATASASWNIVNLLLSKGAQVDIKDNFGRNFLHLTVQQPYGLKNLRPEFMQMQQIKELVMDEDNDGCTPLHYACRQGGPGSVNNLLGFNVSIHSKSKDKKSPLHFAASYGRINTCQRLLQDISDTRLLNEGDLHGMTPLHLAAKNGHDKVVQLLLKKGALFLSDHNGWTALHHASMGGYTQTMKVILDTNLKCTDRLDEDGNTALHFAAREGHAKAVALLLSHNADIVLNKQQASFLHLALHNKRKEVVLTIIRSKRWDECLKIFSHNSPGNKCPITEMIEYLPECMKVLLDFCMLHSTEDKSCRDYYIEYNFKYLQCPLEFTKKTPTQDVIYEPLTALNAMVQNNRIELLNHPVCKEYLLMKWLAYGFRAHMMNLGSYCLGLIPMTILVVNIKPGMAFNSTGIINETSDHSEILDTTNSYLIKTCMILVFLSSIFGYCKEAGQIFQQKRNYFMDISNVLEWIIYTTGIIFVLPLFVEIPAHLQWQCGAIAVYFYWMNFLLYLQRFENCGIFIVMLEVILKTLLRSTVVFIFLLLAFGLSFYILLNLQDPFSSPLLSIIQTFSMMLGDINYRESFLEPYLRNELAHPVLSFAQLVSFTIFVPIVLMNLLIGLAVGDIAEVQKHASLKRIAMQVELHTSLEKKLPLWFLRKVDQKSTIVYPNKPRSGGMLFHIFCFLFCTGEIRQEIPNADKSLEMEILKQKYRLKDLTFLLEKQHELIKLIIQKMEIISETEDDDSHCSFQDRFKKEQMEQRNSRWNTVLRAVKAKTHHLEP
Chain of Cytochrome P450(2D6) (P10635 whole entry): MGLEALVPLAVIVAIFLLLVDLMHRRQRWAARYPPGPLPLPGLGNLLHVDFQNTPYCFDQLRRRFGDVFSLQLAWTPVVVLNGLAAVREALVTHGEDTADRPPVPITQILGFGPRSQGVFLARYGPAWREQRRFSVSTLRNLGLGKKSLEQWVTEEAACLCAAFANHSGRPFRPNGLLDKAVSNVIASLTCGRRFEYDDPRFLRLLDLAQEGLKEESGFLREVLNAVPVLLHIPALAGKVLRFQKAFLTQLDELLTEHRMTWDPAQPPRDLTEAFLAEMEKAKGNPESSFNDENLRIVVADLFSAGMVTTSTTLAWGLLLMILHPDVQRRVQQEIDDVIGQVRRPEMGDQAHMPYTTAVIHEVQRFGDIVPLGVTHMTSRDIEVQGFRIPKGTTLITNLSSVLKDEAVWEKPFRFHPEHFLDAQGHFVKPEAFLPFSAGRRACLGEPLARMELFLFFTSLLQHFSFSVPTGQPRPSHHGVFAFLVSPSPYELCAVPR

SMILES | melting point [°C] | ED50 [2] [mg/kg] | also measured
CC(C)CN1C(=O)/C(=C/C(=O)O)c2cccc(F)c21 [Example 1, (2E)-(7-fluoro-1-isobutyl-2-oxo-1,2-dihydro-3H-indol-3-ylidene)acetic acid] | – | 0.13 | EC50 [1]: 4270 nM; IC50 [3]: > 20 µM
O=C(O)/C=C1/C(=O)N(Cc2ccccc2)c2c(F)cccc21 [Example 18, (2E)-(1-benzyl-7-fluoro-2-oxo-1,2-dihydro-3H-indol-3-ylidene)acetic acid] | 168 to 170 | 3.6 | –
NC(=O)/C=C1/C(=O)N(Cc2ccccc2)c2ccccc21 [Example 20] | – | 4.4 | –
CC(C)(C)CN1C(=O)/C(=C/C(=O)O)c2ccccc21 [Example 25] | – | 0.31 | –
NC(=O)/C=C1/C(=O)N(CC2CCCC2)c2c(F)cccc21 [Example 29] | – | – | EC50 [1]: 660 nM
O=C(/C=C1/C(=O)N(CC2CCCC2)c2c(F)cccc21)N1CCCC1 [Example 30] | – | 0.42 | –
O=C(/C=C1/C(=O)N(CC2CCCC2)c2c(F)cccc21)N1CCC1 [Example 33] | – | – | EC50 [1]: 1300 nM
CCC(CC)CN1C(=O)/C(=C/C(=O)O)c2cccc(F)c21 [Example 36] | – | 0.069 | –
O=C(O)/C=C1/C(=O)N(CC2CC2)c2c(F)cccc21 [Example 37, (2E)-[1-(cyclopropylmethyl)-7-fluoro-2-oxo-1,2-dihydro-3H-indol-3-ylidene]acetic acid] | 171 to 173 | – | IC50 [3]: > 50 µM
COc1cccc(CN2C(=O)/C(=C/C(=O)O)c3cccc(Cl)c32)c1 [Example 39] | – | 0.24 | –
O=C(/C=C1/C(=O)N(CC2CCCC2)c2c(F)cccc21)N1CCOCC1 [Example 40] | – | 0.59 | –
CN(C)C(=O)/C=C1/C(=O)N(CC2CCCC2)c2c(F)cccc21 [Example 43, (2E)-2-[1-(cyclopentylmethyl)-7-fluoro-2-oxo-1,2-dihydro-3H-indol-3-ylidene]-N,N-dimethylacetamide] | 51 to 53 | – | EC50 [1]: 3760 nM; IC50 [3]: > 25 µM
CC(C)CCN1C(=O)/C(=C/C(=O)O)c2cccc(F)c21 [Example 49, (2E)-[7-fluoro-1-(3-methylbutyl)-2-oxo-1,2-dihydro-3H-indol-3-ylidene]acetic acid] | 142 to 144 | – | EC50 [1]: 830 nM
C#CCN1C(=O)/C(=C/C(C)=O)c2ccccc21 [comparative compound 2, (3E)-3-(2-oxopropyridene)-1-prop-2-in-1-yl-1,3-dihydro-2H-indol-2-one, reference compound] | – | 8.8 | –

Now from value to molecule, other results behind:

melting point [°C] | SMILES | ED50 [2] [mg/kg] | also measured
137 to 139 | CC[C@H](C)CN1C(=O)/C(=C/C(=O)O)c2cccc(F)c21 [Example 47, (2E)-{7-fluoro-1-[(2S)-2-methylbutyl]-2-oxo-1,2-dihydro-3H-indol-3-ylidene}acetic acid] | 0.61 | EC50 [1]: 1010 nM
80 to 82 | CN(C)C(=O)/C=C1/C(=O)N(CC2CCCCC2)c2ccccc21 [Example 59, (2E)-2-[1-(cyclohexylmethyl)-2-oxo-1,2-dihydro-3H-indol-3-ylidene]-N,N-dimethylacetamide] | – | –
163 to 165 | O=C(/C=C1/C(=O)N(CC2CCCCC2)c2ccccc21)N1CCC1 [Example 61, (3E)-3-(2-azetidin-1-yl-2-oxoethylidene)-1-(cyclohexylmethyl)-1,3-dihydro-2H-indol-2-one] | – | –
111 to 113 | O=C(/C=C1/C(=O)N(CC2CCCC2)c2ccccc21)N1CCC1 [Example 62, (3E)-3-(2-azetidin-1-yl-2-oxoethylidene)-1-(cyclopentylmethyl)-1,3-dihydro-2H-indol-2-one] | – | –
147 to 149 | CCC(CC)CN1C(=O)/C(=C/C(=O)O)c2ccccc21 [Example 63, (2E)-[1-(2-ethylbutyl)-2-oxo-1,2-dihydro-3H-indol-3-ylidene]acetic acid] | – | –
71 to 73 | CCC(CC)CN1C(=O)/C(=C/C(=O)N2CCCC2)c2ccccc21 [Example 64, (3E)-1-(2-ethylbutyl)-3-(2-oxo-2-pyrrolidin-1-ylethylidene)-1,3-dihydro-2H-indol-2-one] | – | –
116 to 118 | CCC(CC)CN1C(=O)/C(=C/C(=O)N2CCC2)c2ccccc21 [Example 65, (3E)-3-(2-azetidin-1-yl-2-oxoethylidene)-1-(2-ethylbutyl)-1,3-dihydro-2H-indol-2-one] | – | –
133 to 135 | O=C(/C=C1/C(=O)N(CC2CCC2)c2ccccc21)N1CCC1 [Example 66, (3E)-3-(2-azetidin-1-yl-2-oxoethylidene)-1-(cyclobutylmethyl)-1,3-dihydro-2H-indol-2-one] | – | –
108 to 110 | O=C(/C=C1/C(=O)N(CC2CCC2)c2ccccc21)N1CCCC1 [Example 67, (3E)-1-(cyclobutylmethyl)-3-(2-oxo-2-pyrrolidin-1-ylethylidene)-1,3-dihydro-2H-indol-2-one] | – | –
